Experimental data published in US6355799B1, “Substituted benzene compounds, process for their preparation, and herbicidal and defoliant compositions containing them” (ISK Americas Incorporated, priority 1997, dated 2002).

What was measured:
Type in all cases: in vivo
[1] = test system: redroot pigweed (Amaranthus retroflexus, AMARE); assay: Pre-emerge test, greenhouse herbicide activity screening; details: rating scale 0-100, 14 days after application
In short: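 Compounds in acetone were track-sprayed at 15-1000 g ai/ha (187 l/ha) on sandy loam pots: pre-emerge one day after seeding, post-emerge at 2-3 leaf stage with 0.25% v/v non-ionic surfactant. Phytotoxicity was rated 14 days later on a 0 (no damage) to 100 (complete death) scale.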

[2] = test system: ivyleaf morningglory (Ipomoea hederacea, IPOHE); assay: Post-emerge test, greenhouse herbicide activity screening; details: rating scale 0-100 (0 no damage, 100 complete death), 14 days after application
In short: (§1)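 Herbicidal damage is scored 0 (none) to 100 (complete plant death) two weeks after a simulated field spray. Rates span 15–1000 g ai/ha, delivered in acetone at 187 l/ha. For post-emergence treatments, plants have 2–3 leaves and the spray carries 0.25% v/v non-ionic surfactant.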

[3] = test system: large crabgrass (Digitaria sanguinalis, DIGSA); assay: as above; details: rating scale 0-100 (0 no damage, 100 complete death), 14 days after application
In short: as §1

[4] = test system: velvetleaf (Abutilon theophrasti, ABUTH); assay: as above; details: rating scale 0-100 (0 no damage, 100 complete death), 14 days after application
In short: as §1

[5] = test system: green foxtail (Setaria viridis, SETVI); assay: as above; details: rating scale 0-100 (0 no damage, 100 complete death), 14 days after application
In short: as §1

[6] = test system: johnsongrass (Sorghum halepense, SORHA); assay: as above; details: rating scale 0-100 (0 no damage, 100 complete death), 14 days after application
In short: as §1

[7] = test system: lambsquarters (Chenopodium album, CHEAL); assay: as above; details: rating scale 0-100 (0 no damage, 100 complete death), 14 days after application
In short: as §1

[8] = test system: redroot pigweed (Amaranthus retroflexus, AMARE); assay: as above; details: rating scale 0-100 (0 no damage, 100 complete death), 14 days after application
In short: as §1

[9] = test system: sicklepod (Cassia obtusifolia, CASOB); assay: as above; details: rating scale 0-100 (0 no damage, 100 complete death), 14 days after application
In short: as §1

[10] = test system: barnyardgrass (Echinochloa crus-galli, ECHCG); assay: as above; details: rating scale 0-100 (0 no damage, 100 complete death), 14 days after application
In short: as §1

[11] = test system: field corn (Zea mays L., var. Dekalb 535, CORN); assay: Post-emerge test, crop safety; details: rating scale 0-100 (0 no damage, 100 complete death), 14 days after application
In short: (§2)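 Sandy loam pots; pre-emerge: sown 1 d pre-spray, surface-watered after, then bottom-watered. Post-emerge: sown 8–21 d before, 2–3 leaf stage, + 0.25% v/v NIS, bottom-watered. Acetone, 187 l/ha track spray, 15–1000 g ai/ha. 0–100 injury score, day 14.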

[12] = test system: upland rice (Oryza sp., var. Tebonnet, RICE); assay: Post-emerge test, crop safety; details: rating scale 0-100 (0 no damage, 100 complete death), 14 days after application
In short: as §2

[13] = test system: field corn (Zea mays L., var. Dekalb 535, CORN); assay: Pre-emerge test, crop safety; details: rating scale 0-100, 14 days after application
In short: (§3)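 Applied at 15–1000 g ai/ha from acetone in 187 l/ha spray volume. Post-emergence applications included 0.25% v/v non-ionic surfactant and reached plants sown 8–21 days before. Pre-emergence applications were incorporated by surface watering. Efficacy or crop damage was rated on a 0–100 scale after 14 days.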

[14] = test system: upland rice (Oryza sp., var. Tebonnet, RICE); assay: Pre-emerge test, crop safety; details: rating scale 0-100, 14 days after application
In short: as §3

[15] = test system: ivyleaf morningglory (Ipomoea hederacea, IPOHE); assay: Pre-emerge test, greenhouse herbicide activity screening; details: rating scale 0-100, 14 days after application
In short: as §2

[16] = test system: large crabgrass (Digitaria sanguinalis, DIGSA); assay: as above; details: rating scale 0-100, 14 days after application
In short: as §2

[17] = test system: velvetleaf (Abutilon theophrasti, ABUTH); assay: as above; details: rating scale 0-100, 14 days after application
In short: as §2

[18] = test system: green foxtail (Setaria viridis, SETVI); assay: as above; details: rating scale 0-100, 14 days after application
In short: as §2

[19] = test system: johnsongrass (Sorghum halepense, SORHA); assay: as above; details: rating scale 0-100, 14 days after application
In short: as §2

[20] = test system: lambsquarters (Chenopodium album, CHEAL); assay: as above; details: rating scale 0-100, 14 days after application
In short: as §2

[21] = test system: common ragweed (Ambrosia artemisizfolia L., AMBEL); assay: as above; details: rating scale 0-100, 14 days after application
In short: as §2

[22] = test system: sicklepod (Cassia obtusifolia, CASOB); assay: as above; details: rating scale 0-100, 14 days after application
In short: as §2

[23] = test system: barnyardgrass (Echinochloa crus-galli, ECHCG); assay: as above; details: rating scale 0-100, 14 days after application
In short: as §2

C=COC(=O)C(C)(Cl)Cc1c(OC)c(Cl)cc(F)c1-n1c(=O)cc(C(F)(F)F)n(C)c1=O (stereo not shown) [14-42]
Pre-emerge herbicidal activity, phytotoxicity rating AMARE ([1]; 63 g ai/ha): 95 | Pre-emerge herbicidal activity, phytotoxicity rating AMARE ([1]; 250 g ai/ha): 100 | Post-emerge Herbicidal Activity, phytotoxicity rating IPOHE ([2]; Rate 63 g ai/ha): 100 | Post-emerge Herbicidal Activity, phytotoxicity rating IPOHE ([2]; Rate 250 g ai/ha): 100 | Post-emerge Herbicidal Activity, phytotoxicity rating DIGSA ([3]; Rate 63 g ai/ha): 95 | Post-emerge Herbicidal Activity, phytotoxicity rating DIGSA ([3]; Rate 250 g ai/ha): 100 | Post-emerge Herbicidal Activity, phytotoxicity rating ABUTH ([4]; Rate 63 g ai/ha): 100 | Post-emerge Herbicidal Activity, phytotoxicity rating ABUTH ([4]; Rate 250 g ai/ha): 100 | Post-emerge Herbicidal Activity, phytotoxicity rating SETVI ([5]; Rate 63 g ai/ha): 100 | Post-emerge Herbicidal Activity, phytotoxicity rating SETVI ([5]; Rate 250 g ai/ha): 100 | Post-emerge Herbicidal Activity, phytotoxicity rating SORHA ([6]; Rate 63 g ai/ha): 60 | Post-emerge Herbicidal Activity, phytotoxicity rating SORHA ([6]; Rate 250 g ai/ha): 95 | Post-emerge Herbicidal Activity, phytotoxicity rating CHEAL ([7]; Rate 63 g ai/ha): 100 | Post-emerge Herbicidal Activity, phytotoxicity rating CHEAL ([7]; Rate 250 g ai/ha): 100 | Post-emerge Herbicidal Activity, phytotoxicity rating AMARE ([8]; Rate 63 g ai/ha): 100 | Post-emerge Herbicidal Activity, phytotoxicity rating AMARE ([8]; Rate 250 g ai/ha): 100 | Post-emerge Herbicidal Activity, phytotoxicity rating CASOB ([9]; Rate 63 g ai/ha): 60 | Post-emerge Herbicidal Activity, phytotoxicity rating CASOB ([9]; Rate 250 g ai/ha): 90 | Post-emerge Herbicidal Activity, phytotoxicity rating ECHCG ([10]; Rate 63 g ai/ha): 100 | Post-emerge Herbicidal Activity, phytotoxicity rating ECHCG ([10]; Rate 250 g ai/ha): 100 | Post-emerge phytotoxicity rating CORN (crop damage) ([11]; Rate 63 g ai/ha): 100 | Post-emerge phytotoxicity rating CORN (crop damage) ([11]; Rate 250 g ai/ha): 100 | Post-emerge phytotoxicity rating RICE (crop damage) ([12]; Rate 63 g ai/ha): 95 | Post-emerge phytotoxicity rating RICE (crop damage) ([12]; Rate 250 g ai/ha): 100 | Pre-emerge phytotoxicity rating, crop damage CORN ([13]; 63 g ai/ha): 0 | Pre-emerge phytotoxicity rating, crop damage CORN ([13]; 250 g ai/ha): 20 | Pre-emerge phytotoxicity rating, crop damage RICE ([14]; 63 g ai/ha): 10 | Pre-emerge phytotoxicity rating, crop damage RICE ([14]; 250 g ai/ha): 30 | Pre-emerge herbicidal activity, phytotoxicity rating IPOHE ([15]; 63 g ai/ha): 0 | Pre-emerge herbicidal activity, phytotoxicity rating IPOHE ([15]; 250 g ai/ha): 30 | Pre-emerge herbicidal activity, phytotoxicity rating DIGSA ([16]; 63 g ai/ha): 0 | Pre-emerge herbicidal activity, phytotoxicity rating DIGSA ([16]; 250 g ai/ha): 50 | Pre-emerge herbicidal activity, phytotoxicity rating ABUTH ([17]; 63 g ai/ha): 80 | Pre-emerge herbicidal activity, phytotoxicity rating ABUTH ([17]; 250 g ai/ha): 95 | Pre-emerge herbicidal activity, phytotoxicity rating SETVI ([18]; 63 g ai/ha): 30 | Pre-emerge herbicidal activity, phytotoxicity rating SETVI ([18]; 250 g ai/ha): 80 | Pre-emerge herbicidal activity, phytotoxicity rating SORHA ([19]; 63 g ai/ha): 0 | Pre-emerge herbicidal activity, phytotoxicity rating SORHA ([19]; 250 g ai/ha): 0 | Pre-emerge herbicidal activity, phytotoxicity rating CHEAL ([20]; 63 g ai/ha): 90 | Pre-emerge herbicidal activity, phytotoxicity rating CHEAL ([20]; 250 g ai/ha): 100 | Pre-emerge herbicidal activity, phytotoxicity rating AMBEL ([21]; 63 g ai/ha): 0 | Pre-emerge herbicidal activity, phytotoxicity rating AMBEL ([21]; 250 g ai/ha): 100 | Pre-emerge herbicidal activity, phytotoxicity rating CASOB ([22]; 63 g ai/ha): 0 | Pre-emerge herbicidal activity, phytotoxicity rating CASOB ([22]; 250 g ai/ha): 0 | Pre-emerge herbicidal activity, phytotoxicity rating ECHCG ([23]; 63 g ai/ha): 0 | Pre-emerge herbicidal activity, phytotoxicity rating ECHCG ([23]; 250 g ai/ha): 20
